Assay results reported in patent publication US9447033B2, “Potassium channel blockers” (Japan Tobacco Inc., priority 2008, dated 2016).

Tests used:
human Kv1.3 = target: T1, human Kv1.3 (Homo sapiens, UniProt P22001); test: Kv1.3 Autopatch electrophysiology (whole cell); format: cell-based; details: compound at 1 μM; inhibition of charge movement relative to control; room temperature; read-out: hKv1.3 % Inh.
T1 construct: expressed in transfected cells
Description: Kv1.3 Autopatch Electrophysiology Method
Cells stably transfected with cDNA for human Kv1.3 (in pcDNA3.1) were grown in Ex-cell 302 serum-free medium for CHO cells, supplemented with 10 μl/ml [100×] glutamine, 500 μg/ml G418 ([…]), and 1% HT supplement (50×, hypoxanthine and thymidine). Compounds were tested on these cells using the AutoPatch technology in whole cell mode.
The external bathing solution contained (in mM): 150 NaCl, 10 KCl, MgCl2, 3 CaCl2, 10 HEPES, pH 7.4 with NaOH. Patch pipettes were filled with an electrode solution of composition (in mM): 100 K-Gluconate, 20 KCl, 1 MgCl2, CaCl2, 10 HEPES, 11 EGTA, 5 ATP-Na2, 2 Glutathione pH 7.2 with KOH.
Compounds were dissolved in DMSO (100%) and made up in the external bather at a concentration of 1 μM immediately prior to use. All experiments were conducted at room temperature.
A cell suspension (10 ml), with a density of 6×10^6 cells, was aliquoted into a 15 ml centrifuge tube and stored at 4° C. before use. Prior to use a tube was taken and centrifuged at 1000 rpm for 4 mins at room temperature. The supernatant was then discarded, leaving a cell pellet at the bottom of the tube. The pellet was then resuspended using 1 ml of cold (4° C.), filtered (0.22 μm), 0.05% BSA/bather solution (0.05 g BSA/100 ml bather). The bottom of the tube was manually agitated followed by gentle tituration. The cell suspension was then placed in the AutoPatch™ temperature controlled cell-hotel at 14° C. and regularly titurated.
A length of Teflon capillary tubing was dipped into the cell suspension solution, and a column of fluid was taken up by negative pressure. The column of fluid was in electrically connectivity with a Ag/AeCl reference electrode. Borosilicate glass patch pipettes (from 1.5 mm OD, thin-walled filamented, GC150-TF capillary glass, Harvard) were pulled using a DMZ pipette puller (Zeitz Instruments), and were back-filled using the internal pipette solution, being careful that no bubbles remained at the tip or in the body of the pipette. Patch pipettes typically had resistances of 2.5-3.5 MΩ. Once filled, the pipette tip and a proportion of the shaft (˜15 mm) were dipped into Sigmacote (Sigma). The recording pipettes were placed in a multiwell array and mounted on the AutoPatch™ machine. Automated patch-clamping and drug-application was initiated by the operator, but thereafter AutoPatch.exe continued the experiment providing that pre-set conditions and criteria were satisfied.
Whole cell patch-clamp recordings were made using the AutoPatch™ rig, which incorporated an EPC9 or EPC10 amplifier (HEKA, Germany) under control of Pulse software (v8.54 or v8.76, HEKA, Germany), a cell applicator, automated drug application system (DAS), valve controller (VFI) and a suction device all at room temperature. This equipment was completely under the control of AutoPatch.exe and operator intervention was only made when there was a requirement to refill the bather reservoirs or to prevent the loss of a cell due to a technical error. […]
Electrophysiology voltage-step protocols and analysis of data was performed as follows. […] Online analysis of the hKv1.3 current during the application of compounds was performed by the Pulse (v8.54 or v8.76, HEKA, Germany), Excel (Microsoft, USA) and AutoPatch™ software, with the total charge measured during the whole of voltage step. Inhibition of charge movement in the presence of drug was calculated relative to control.

hKv1.5 = hKv1.5 (Homo sapiens, UniProt P22460); test: Kv1.5 Autopatch electrophysiology (whole cell); format: cell-based; details: hKv1.5 current, test concentration not given, read-out: hKv1.5 % Inh.
Sequence of hKv1.5 (P22460 whole entry): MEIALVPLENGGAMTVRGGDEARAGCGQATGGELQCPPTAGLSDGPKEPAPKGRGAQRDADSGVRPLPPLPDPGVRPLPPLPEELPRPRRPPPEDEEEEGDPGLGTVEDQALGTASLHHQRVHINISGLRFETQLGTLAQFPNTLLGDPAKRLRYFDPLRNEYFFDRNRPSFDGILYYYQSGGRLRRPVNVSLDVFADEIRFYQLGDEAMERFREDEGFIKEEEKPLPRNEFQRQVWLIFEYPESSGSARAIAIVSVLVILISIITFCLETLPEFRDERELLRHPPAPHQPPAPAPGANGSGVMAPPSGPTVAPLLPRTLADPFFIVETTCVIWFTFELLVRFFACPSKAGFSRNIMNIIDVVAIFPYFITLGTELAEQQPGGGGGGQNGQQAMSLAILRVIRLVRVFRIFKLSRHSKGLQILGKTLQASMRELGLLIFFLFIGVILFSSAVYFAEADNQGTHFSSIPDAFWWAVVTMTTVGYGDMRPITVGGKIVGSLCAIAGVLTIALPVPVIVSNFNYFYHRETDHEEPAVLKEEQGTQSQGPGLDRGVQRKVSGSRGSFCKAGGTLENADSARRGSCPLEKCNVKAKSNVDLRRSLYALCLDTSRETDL
Description: Kv1.5 Autopatch Electraphysiogogy Method
The external bathing solution contained (in mM): 150 NaCl, 10 KCl, […], 3 MgCl2, 1 CaCl2, 10 HEPES, pH 7.4. Patch pipettes were filled with an electrode solution of composition (in mM): 160 KCl, 0.5 MgCl2, 10 HEPES, 1 EGTA, pH 7.4 with KOH.
Compounds were dissolved in DMSO (100%) and made up in the external bather at a concentration of 1 μM. All experiments were conducted at room temperature (22-24° C.).
A cell suspension (10 ml), with a density of 100,000 cells/ml, was aliquoted into a 15 ml centrifuge tube and transferred to an incubator (37° C., 5% CO2) for approximately one hour before use. Following 60 min incubation, a tube was taken and centrifuged at 1000 rpm for 4 mins at mom temperature. 9.5 ml supernatant was thence discarded, leaving a cell pellet a the bottom of the tube. The pellet was then resuspended using 100 μl of cold (4° C.), filtered (0.22 μm), 0.2% BSA/bather solution (0.02 g BSA/10 ml bather). The bottom of the tube was manually agitated gently until the solution became cloudy with cells. The 100 μl cell resuspension solution was then stored on the bench at 4° C. (using a Peltier-based temperature control device) until used.
A length of capillary glass (1B150F-4, WPI) was dipped into the cell suspension solution, such that ˜3 cm column of fluid was taken up by capillary action. A Ag/AgCl wire was dropped into the non-dipped end of the capillary also. The outside of the solution-filled end of the capillary was then dried and the capillary was loaded into the AutoPatch™.
Borosilicate glass patch pipettes (from 1.5 mm OD, thin-walled filamented, GC150-TF capillary glass, Harvard) were pulled using a DMZ pipette puller (Zeitz instruments), and were back-filled using the internal pipette solution, being careful that no bubbles remain at the tip or in the body of the pipette. Patch pipettes typically had resistances of 2.3-3.5 MΩ. Once filled, the pipette tip and a proportion of the shaft (˜15 mm) were dipped into Sigmacote (Sigma). The recording pipette was then loaded into the AutoPatch™. Automated patch-clamping was initiated by the operator, but thereafter AutoPatch.exe continued the experiment providing that pre-set conditions and criteria were satisfied.
Whole cell patch-clamp recordings were made using the AutoPatch™ rig, which incorporated an EPC9 amplifier (HEKA, Germany) under control of Pulse software (v8.54, HEKA, Germany), a motion controller with 2 translators (Newport, UK), valve controller (VFI) and a c-level suction device all at room temperature (22-24° C.). This equipment was completely under the control of AutoPatch.exe and operator intervention was only made when there was a requirement to refill the drug reservoirs or to prevent the loss of a cell due to a technical error. Cells with an Rseries greater than 18 MΩ were discounted from the experiment.
Qualification stages prior to perfusion and drug application ensured that the observed current met the criteria for the experiment. Only those cells with an 1K>500 pA were used for experiments. Cells were continuously perfused with external solution at a flow rate of 1.8-2 ml/minute. […]
Electrophysiology voltage-step protocols and analysis of data was performed as follows. […] Currents were analysed using Pulsefit software (v8.54, HEKA, Germany), with the total charge measured during the whole of the voltage step. […]

T1 sequence (P22001 whole entry): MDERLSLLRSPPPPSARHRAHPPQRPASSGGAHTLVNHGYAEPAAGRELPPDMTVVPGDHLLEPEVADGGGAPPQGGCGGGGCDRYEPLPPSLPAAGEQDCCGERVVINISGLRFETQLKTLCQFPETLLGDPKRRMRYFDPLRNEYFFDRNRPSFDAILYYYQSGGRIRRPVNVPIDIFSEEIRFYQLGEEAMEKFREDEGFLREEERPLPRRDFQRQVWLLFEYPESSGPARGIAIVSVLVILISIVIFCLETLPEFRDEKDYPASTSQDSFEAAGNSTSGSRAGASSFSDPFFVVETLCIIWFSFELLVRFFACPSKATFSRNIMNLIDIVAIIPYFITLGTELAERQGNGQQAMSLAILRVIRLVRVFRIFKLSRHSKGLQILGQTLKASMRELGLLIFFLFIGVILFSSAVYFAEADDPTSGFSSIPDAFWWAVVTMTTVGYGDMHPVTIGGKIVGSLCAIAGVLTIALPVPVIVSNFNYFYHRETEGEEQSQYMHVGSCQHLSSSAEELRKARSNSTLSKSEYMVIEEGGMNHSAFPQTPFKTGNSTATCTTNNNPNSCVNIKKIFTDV

| SMILES | inhibition at 1 µM (human Kv1.3) [%] | inhibition at 1 µM (hKv1.5) [%] |
| --- | --- | --- |
| CC(=O)Nc1ccc(S(=O)(=O)N(Cc2ccccc2)c2cccc(C(=O)NC(C)C)c2)cc1 [Example 5, 3-[(4-Acetylamino-benzenesulfonyl)-benzyl-amino]-N-isopropyl-benzamide] | 45 | 18 |
| CC(C)NC(=O)c1cccc(N(Cc2ccccc2)S(=O)(=O)c2cccnc2)c1 [Example 3, 3-[Benzyl-(pyridine-3-sulfonyl)-amino]-N-isopropyl-benzamide] | 92 | 52 |
| Cn1ccc(S(=O)(=O)N(Cc2ccc(Cl)cc2)c2cccc(C(=O)NCCO)c2)n1 [Example 1, 3-[(4-Chloro-benzyl)-(1-methyl-1H-pyrazole-3-sulfonyl)-amino]-N-(2-hydroxy-ethyl)-benzamide] | 86 | 48 |
| O=C(Nc1ccc2cn[nH]c2c1)c1cccc(N(Cc2ccccc2)S(=O)(=O)c2ccccc2)c1 [Example 4, 3-(Benzenesulfonyl-benzyl-amino)-N-(1H-indazol-6-yl)-benzamide] | 88 | 99 |
| CC(C)NC(=O)c1cccc(N(Cc2ccc(Cl)cc2)S(=O)(=O)c2ccnn2C)c1 [Example 7, 3-[(4-Chloro-benzyl)-(2-methyl-2H-pyrazole-3-sulfonyl)-amino]-N-isopropyl-benzamide] | 57 | 54 |
